Experimental data taken from PMC9558510 (Cancers, 2022).

Legend:
[1] = Observed steady-state serum concentrations (LC-MS/MS) in melanoma patients; assay type: in vivo, human; details: for effect of co-medication with at least one P-gp inducer on individual mean trough concentrations / serum Cmin mean / serum Cmin median: standard dose
Procedure: Serum samples were collected regularly during each routine outpatient visit from study enrollment until January 2022 or until treatment discontinuation. If possible, blood sampling was performed before the next drug administration, but any time interval between the last administration and blood withdrawal was accepted. The steady-state was assumed after continuous dosing for fourteen days for both compounds.
Hydroxy-dabrafenib concentrations were analyzed using a different previously published LC-MS/MS method with an LLOQ of 10 ng/mL [37]. […] Hydroxy-dabrafenib was not quantified in capillary blood samples as the methodology was not available at the time of analysis. All the methods have been validated according to the guidelines of the U.S. Food and Drug Administration and/or the European Medicines Agency.
Data were collected and processed using Microsoft Excel 2016 Version 16.0 (Microsoft Corporation, Redmond, WA, USA). Statistical calculations and visualization of results were performed with R Studio Version 1.2.5042 (RStudio Incorporation, Boston, MA, USA) running R version 4.0.5 (R Foundation for Statistical Computing, Vienna, Austria, 2020). For further analysis, serum concentrations were divided into groups according to time interval post-dose as follows: 0–5 h, 5–10 h, 10–14 h, and >14 h for (hydroxy-)dabrafenib and 0–10 h, 10–20 h, 20–30 h, and >30 h for trametinib. Concentrations < LLOQ were excluded from further statistical analyses. The concentrations of the same patient at the same dosage and within the same post-dose group were summarized into an individual mean serum concentration for descriptive statistical analysis to account for potential bias caused by the unbalanced number of samples per patient. […] The Wilcoxon […] test was used for unpaired samples. The correlations between individual PK parameters sampled from the conditional distribution during the generation of EBE (methods for estimation see below) and age, sex, body mass index (BMI), and co-medication were analyzed using analysis of variance (ANOVA) and Spearman’s correlation coefficient. Logistic regression was used to compare the risk of treatment discontinuations or dose reductions (dabrafenib dose reduction or discontinuation, trametinib dose reduction or discontinuation, or any dose reduction or discontinuation) with the corresponding predicted trough concentrations and area under the curve of a dosing interval (AUCτ) of dabrafenib, hydroxy-dabrafenib, and trametinib as well as with the composite predicted dabrafenib/hydroxy-dabrafenib trough concentration and with composite dabrafenib/hydroxy-dabrafenib AUCτ assuming standard dosing. The Hosmer–Lemeshow test was used to evaluate the goodness of fit for our logistic regression model. Due to the explorative nature of the study, p-values obtained from multiple comparisons were not corrected for multiple testing. A p-value < 0.05 was considered statistically significant.

[2] = popPK model-informed VAMS-to-serum conversion model (self-sampled capillary blood); assay type: in vivo, human; details: for Ind V1/F / Ind CL/F / Ind Q/F: at-home VAMS; for Ind Kbp: MAP estimate from at least one paired sample
Procedure: In addition to serum sampling, patients were asked to participate in the sampling of capillary blood in the clinic and at home. Micro-sampling was not obligatory for enrollment in the study. Micro-sampling was performed from a finger by drawing 20 µL of capillary blood onto the VAMS device MITRA® purchased from Neoteryx (Torrance, CA, USA). During outpatient visits, micro-sampling was conducted by medical staff in parallel to serum sampling. A maximum of six corresponding serum/VAMS samples were collected per patient. Additionally, patients were asked to perform at-home sampling after being instructed by trained staff. For each at-home sampling occasion, patients received a set including four VAMS devices. Patients were instructed to perform sampling at four different time points during the following four time slots: 9 a.m.–12 p.m., 12–3 p.m., 3–6 p.m., and 6–9 p.m. […] Samples collected during different time slots were still accepted. The time of last drug administration and sampling times were self-documented on a specific form. No special storage conditions were specified, and patients were asked to keep samples at ambient temperature until shipment. Samples were sent to the laboratory in an airtight and opaque bag containing desiccant for analysis. At-home samples were collected at up to four occasions per patient. Hematocrit was documented from the results of routine blood withdrawal for VAMS samples collected during outpatient visits. For at-home samples, the last known hematocrit was used. […]
The conversion was based on a hematocrit-dependent formula (Figure 1). […] As proposed by Iacuzzi et al., the blood cell to plasma partition coefficient (Kbp) and intraindividual variability (IIV) were included in the conversion model and estimated from the consolidated data (Figure 1). For this purpose and to evaluate the conversion models, all the serum (Supplementary Table S1) and VAMS concentrations (collected at home or in the clinic) (Supplementary Table S2) were consolidated in a single dataset and fitted to the combined model using the EBE in Monolix 2021R1 (Lixoft SAS, Antony, France). Incorrectly sampled VAMS were removed from the dataset. The resulting individual predicted VAMS concentrations were compared with the observed VAMS concentrations. […] For trametinib, at least one paired sample per patient was included to generate the individual estimate for Kbp. A visual predictive check was performed to evaluate the predictive performance of the method.
Figure 1 Development of the population pharmacokinetic (popPK) model-informed VAMS-to-serum conversion model. PopPK models by Balakirouchenane et al. were used to generate serum maximum a posteriori (MAP) estimates from volumetric absorptive micro-sampling (VAMS) for dabrafenib (A) and trametinib (B).

[3] = serum, dabrafenib dose of 150 mg q12h
[4] = MAP estimate, patient DT002, 2 mg/24 h
[5] = MAP estimate, patient DT010, 2 mg/24 h
[6] = MAP estimate, patient DT014, 2 mg/24 h
[7] = MAP estimate, patient DT018, 1 mg/24 h
[8] = MAP estimate, patient DT019, 1.5 mg/24 h
[9] = MAP estimate, patient DT026, 2 mg/24 h
[10] = MAP estimate, patient DT027, 2 mg/24 h

SMILES: CC(C)(C)c1nc(-c2cccc(NS(=O)(=O)c3c(F)cccc3F)c2F)c(-c2ccnc(N)n2)s1 [dabrafenib]
- median of individual mean trough concentration [1, 3]: 45.0 ng/mL
- range of individual mean trough concentration [1, 3]: 20 to 155 ng/mL
- effect of co-medication with at least one P-gp inducer on individual mean trough concentrations ([1]; serum): no effect
- serum Cmin mean ([1]; BMI (kg/m2) < 30): 46.5 ng/mL
- serum Cmin median ([1]; BMI (kg/m2) < 30): 42.9 ng/mL
- serum Cmin mean ([1]; BMI (kg/m2) >= 30): 69.1 ng/mL
- serum Cmin median ([1]; BMI (kg/m2) >= 30): 54 ng/mL
- serum Cmin mean ([1]; P-gp inducer: no): 60.9 ng/mL
- serum Cmin median ([1]; P-gp inducer: no): 48 ng/mL
- serum Cmin mean ([1]; P-gp inducer: yes): 40.4 ng/mL
- serum Cmin median ([1]; P-gp inducer: yes): 41.8 ng/mL
- serum Cmin mean ([1]; P-gp inhibitor: no): 77.8 ng/mL
- serum Cmin median ([1]; P-gp inhibitor: no): 52.9 ng/mL
- serum Cmin mean ([1]; P-gp inhibitor: yes): 42.4 ng/mL
- serum Cmin median ([1]; P-gp inhibitor: yes): 41.8 ng/mL
- serum Cmin mean ([1]; PPI: no): 63.1 ng/mL
- serum Cmin median ([1]; PPI: no): 51.6 ng/mL
- serum Cmin mean ([1]; PPI: yes): 32.4 ng/mL
- serum Cmin median ([1]; PPI: yes): 32.4 ng/mL
- serum Cmin mean ([1]; age above 65: no): 54.9 ng/mL
- serum Cmin median ([1]; age above 65: no): 43.5 ng/mL
- serum Cmin mean ([1]; age above 65: yes): 51.9 ng/mL
- serum Cmin median ([1]; age above 65: yes): 42.9 ng/mL
- serum Cmin mean ([1]; moderate CYP2C8 inhibitor: no): 58.9 ng/mL
- serum Cmin median ([1]; moderate CYP2C8 inhibitor: no): 44.3 ng/mL
- serum Cmin mean ([1]; moderate CYP2C8 inhibitor: yes): 46.9 ng/mL
- serum Cmin median ([1]; moderate CYP2C8 inhibitor: yes): 47.4 ng/mL
- serum Cmin mean ([1]; sex female): 75.5 ng/mL
- serum Cmin median ([1]; sex female): 52.9 ng/mL
- serum Cmin mean ([1]; sex male): 36.5 ng/mL
- serum Cmin median ([1]; sex male): 39.3 ng/mL
- Ind V1/F ([2]; MAP estimate, patient DT002, 150 mg/12 h): 30.8 L
- Ind V1/F ([2]; MAP estimate, patient DT005, 150 mg/12 h): 24.7 L
- Ind V1/F ([2]; MAP estimate, patient DT010, 150 mg/12 h): 14.3 L
- Ind V1/F ([2]; MAP estimate, patient DT014, 150 mg/12 h): 30.2 L
- Ind V1/F ([2]; MAP estimate, patient DT018, 150 mg/12 h): 82.5 L
- Ind V1/F ([2]; MAP estimate, patient DT019, 150 mg/12 h): 39.5 L
- Ind V1/F ([2]; MAP estimate, patient DT026, 100 mg/12 h): 40.3 L
- Ind V1/F ([2]; MAP estimate, patient DT027, 150 mg/12 h): 71.5 L
- Ind CL/F ([2]; patient DT002, occasion 1, 150 mg/12 h): 13.5 L/h
- Ind CL/F ([2]; patient DT002, occasion 2, 150 mg/12 h): 17.2 L/h
- Ind CL/F ([2]; patient DT002, occasion 3, 150 mg/12 h): 21.1 L/h
- Ind CL/F ([2]; patient DT005, occasion 1, 150 mg/12 h): 20.7 L/h
- Ind CL/F ([2]; patient DT010, occasion 1, 150 mg/12 h): 18.5 L/h
- Ind CL/F ([2]; patient DT010, occasion 2, 150 mg/12 h): 33.3 L/h
- Ind CL/F ([2]; patient DT010, occasion 3, 150 mg/12 h): 12.1 L/h
- Ind CL/F ([2]; patient DT014, occasion 1, 150 mg/12 h): 30.1 L/h
- Ind CL/F ([2]; patient DT018, occasion 1, 150 mg/12 h): 24.7 L/h
- Ind CL/F ([2]; patient DT018, occasion 2, 150 mg/12 h): 14.9 L/h
- Ind CL/F ([2]; patient DT018, occasion 3, 150 mg/12 h): 37.5 L/h
- Ind CL/F ([2]; patient DT018, occasion 4, 150 mg/12 h): 32.3 L/h
- Ind CL/F ([2]; patient DT019, occasion 1, 150 mg/12 h): 33.1 L/h
- Ind CL/F ([2]; patient DT019, occasion 2, 150 mg/12 h): 15.8 L/h
- Ind CL/F ([2]; patient DT019, occasion 3, 150 mg/12 h): 9.8 L/h
- Ind CL/F ([2]; patient DT019, occasion 4, 150 mg/12 h): 24.2 L/h
- Ind CL/F ([2]; patient DT026, occasion 1, 100 mg/12 h): 33.3 L/h
- Ind CL/F ([2]; patient DT026, occasion 2, 100 mg/12 h): 41.1 L/h
- Ind CL/F ([2]; patient DT026, occasion 3, 100 mg/12 h): 38.7 L/h
- Ind CL/F ([2]; patient DT027, occasion 1, 150 mg/12 h): 28.6 L/h
- Ind CL/F ([2]; patient DT027, occasion 2, 150 mg/12 h): 23.2 L/h
- Ind CL/F ([2]; patient DT027, occasion 3, 150 mg/12 h): 36.5 L/h

SMILES: CC(=O)Nc1cccc(-n2c(=O)n(C3CC3)c(=O)c3c(Nc4ccc(I)cc4F)n(C)c(=O)c(C)c32)c1 [trametinib]
- median of mean trough concentration ([1]; serum, 2 mg q24h): 11.2 ng/mL
- range of mean trough concentration ([1]; serum, 2 mg q24h): 6.22 to 15.9 ng/mL
- effect of co-medication with at least one P-gp inducer on individual mean trough concentrations ([1]; serum): significant decrease
- serum Cmin mean ([1]; BMI (kg/m2) < 30): 11.2 ng/mL
- serum Cmin median ([1]; BMI (kg/m2) < 30): 11.4 ng/mL
- serum Cmin mean ([1]; BMI (kg/m2) >= 30): 9.93 ng/mL
- serum Cmin median ([1]; BMI (kg/m2) >= 30): 9.79 ng/mL
- serum Cmin mean ([1]; P-gp inducer: no): 11.5 ng/mL
- serum Cmin median ([1]; P-gp inducer: no): 11.7 ng/mL
- serum Cmin mean ([1]; P-gp inducer: yes): 9.3 ng/mL
- serum Cmin median ([1]; P-gp inducer: yes): 9.68 ng/mL
- serum Cmin mean ([1]; P-gp inhibitor: no): 10.9 ng/mL
- serum Cmin median ([1]; P-gp inhibitor: no): 11.3 ng/mL
- serum Cmin mean ([1]; P-gp inhibitor: yes): 10.5 ng/mL
- serum Cmin median ([1]; P-gp inhibitor: yes): 10.9 ng/mL
- serum Cmin mean ([1]; PPI: no): 10.8 ng/mL
- serum Cmin median ([1]; PPI: no): 11.5 ng/mL
- serum Cmin mean ([1]; PPI: yes): 10.7 ng/mL
- serum Cmin median ([1]; PPI: yes): 10.9 ng/mL
- serum Cmin mean ([1]; age above 65: no): 10.6 ng/mL
- serum Cmin median ([1]; age above 65: no): 11.3 ng/mL
- serum Cmin mean ([1]; age above 65: yes): 10.9 ng/mL
- serum Cmin median ([1]; age above 65: yes): 10.9 ng/mL
- serum Cmin mean ([1]; sex female): 11.1 ng/mL
- serum Cmin median ([1]; sex female): 11.3 ng/mL
- serum Cmin mean ([1]; sex male): 10.6 ng/mL
- serum Cmin median ([1]; sex male): 11.2 ng/mL
- Ind Kbp ([2]; patient DT002): 4.84
- Ind Kbp ([2]; patient DT010): 4.98
- Ind Kbp ([2]; patient DT014): 5.36
- Ind Kbp ([2]; patient DT018): 3.89
- Ind Kbp ([2]; patient DT019): 3.91
- Ind Kbp ([2]; patient DT026): 4.38
- Ind Kbp ([2]; patient DT027): 4.41
- Ind CL/F [2, 4]: 6.07 L/h
- Ind Q/F [2, 4]: 97.65 L/h
- Ind CL/F [2, 5]: 6.63 L/h
- Ind Q/F [2, 5]: 125.55 L/h
- Ind CL/F [2, 6]: 8.36 L/h
- Ind Q/F [2, 6]: 129.17 L/h
- Ind CL/F [2, 7]: 3.52 L/h
- Ind Q/F [2, 7]: 185.04 L/h
- Ind CL/F [2, 8]: 3.79 L/h
- Ind Q/F [2, 8]: 77.82 L/h
- Ind CL/F [2, 9]: 6.25 L/h
- Ind Q/F [2, 9]: 106.5 L/h
- Ind CL/F [2, 10]: 6.95 L/h
- Ind Q/F [2, 10]: 65.04 L/h
- population value for Kbp (blood cell to plasma partition coefficient) ([2]; estimated from combined serum and VAMS dataset): 4.62
- IIV of ωKbp ([2]; extended trametinib model): 0.31
